Experimental data published in patent publication US20030191342A1, “Process for the production of crystals of a benzoic acid derivative” (priority 2000, published 2003).

Experiments:
[1] = background art statement, no method given; cited from earlier work
[2] = Grain size distribution by laser-type grain size analyzer (Microtrac FRA); type: physicochemical; details: crystals dispersed in aqueous Soprophor FL; for Average grain size 10%: 10% point of grain size distribution; for Average grain size 50%: 50% point of grain size distribution; for Average grain size 90%: 90% point of grain size distribution
Procedure: Grain size distributions of the crystals obtained in Example 1 and Comparative Example 1 were measured. A laser-type grain size analyzer (Microtrac FRA) was used. A 1% aqueous solution of Soprophor FL (3 ml, Rhone-Poulenc) was added with water (15 ml), and an appropriate amount of the crystals obtained in Example 1 or Comparative Example 1 were dispersed in the mixture to obtain a sample dispersion.

| Average grain size 10% [2] | Average grain size 50% [2] | Average grain size 90% [2] | SMILES | stability against heat, temperature, light and the like [1] | stability of crystalline form against physical impact [1] |
| --- | --- | --- | --- | --- | --- |
| – | – | – | CC1(C)CCC(C)(C)c2cc(NC(=O)c3ccc(C(=O)O)cc3)ccc21 [crystal that melts at 233° C., 4-[(5,6,7,8-tetrahydro-5,5,8,8-tetramethyl-2-naphthalenyl)carbamoyl]benzoic acid] | high stability | high stability |
| – | – | – | CC1(C)CCC(C)(C)c2cc(NC(=O)c3ccc(C(=O)O)cc3)ccc21 [crystal that melts at 193° C., 4-[(5,6,7,8-tetrahydro-5,5,8,8-tetramethyl-2-naphthalenyl)carbamoyl]benzoic acid, reference compound] | – | crystalline form readily occurs transition by physical impact |
| 16.38 μm | 39.74 μm | 86.92 μm | CC1(C)CCC(C)(C)c2cc(NC(=O)c3ccc(C(=O)O)cc3)ccc21 [Ethanol/water, 4-[(5,6,7,8-Tetrahydro-5,5,8,8-tetramethyl-2-naphthalenyl)carbamoyl]benzoic acid] | – | – |
| 42.74 μm | 96.29 μm | 268.75 μm | CC1(C)CCC(C)(C)c2cc(NC(=O)c3ccc(C(=O)O)cc3)ccc21 [Methanol/water, 4-[(5,6,7,8-Tetrahydro-5,5,8,8-tetramethyl-2-naphthalenyl)carbamoyl]benzoic acid, reference compound] | – | – |
